Experimental data as given in paper PMC4792161, “A novel pyrazole derivative protects from ovariectomy-induced osteoporosis through the inhibition of NADPH oxidase” (Scientific Reports, 2016).
Marks after values point to notes of the source that are not given here.

Columns and labels:
[1] = Pharmacokinetics after IV and oral administration to rats; format: in vivo
Experimental: Supplementary Table S1. Pharmacokinetic parameters of Ewha-89403 following IV and oral administration at the doses of 1 mg/kg and 10 mg/kg, respectively, to rats (n=4-5) PK Parameters IV Injection Oral Administration
Absolute Bioavailability (BA) = 4.3 %
Supplementary Table S2. Pharmacokinetic parameters of Ewha-18278 following IV and oral administration at the doses of 2 mg/kg and 20 mg/kg, respectively, to rats (n=5-6) […]
Absolute Bioavailability (BA) = 63.8 %

[2] = molecular target: glucose oxidase (Aspergillus niger, UniProt P13006); assay: Glucose oxidase assay (lucigenin); format: biochemical
Experimental: Glucose oxidase activity was measured by lucigenin. Reaction mixtures contained 0.75 mM glucose, 0.25 mg/ml glucose oxidase, and 0.4 mM lucigenin with the indicated inhibitor (0–20μM). Luminescence was measured over 30 min at 37 °C with luminometor (DTX800, Beckman coulter).

[3] = molecular target: T1, human Nox2 (Homo sapiens, UniProt P04839); assay: Nox inhibitor screening, Drosophila membranes over-expressing human Nox2, ROS chemiluminescence; format: biochemical; conditions: hNox2 Drosophila membranes
T1 construct: made in house; host or cells: transgenic Drosophila (Duox knockdown, Da-GAL4 driven UAS-hNOX2); membrane-enriched fly homogenate
T1 sequence (P04839 2-570 limits assumed): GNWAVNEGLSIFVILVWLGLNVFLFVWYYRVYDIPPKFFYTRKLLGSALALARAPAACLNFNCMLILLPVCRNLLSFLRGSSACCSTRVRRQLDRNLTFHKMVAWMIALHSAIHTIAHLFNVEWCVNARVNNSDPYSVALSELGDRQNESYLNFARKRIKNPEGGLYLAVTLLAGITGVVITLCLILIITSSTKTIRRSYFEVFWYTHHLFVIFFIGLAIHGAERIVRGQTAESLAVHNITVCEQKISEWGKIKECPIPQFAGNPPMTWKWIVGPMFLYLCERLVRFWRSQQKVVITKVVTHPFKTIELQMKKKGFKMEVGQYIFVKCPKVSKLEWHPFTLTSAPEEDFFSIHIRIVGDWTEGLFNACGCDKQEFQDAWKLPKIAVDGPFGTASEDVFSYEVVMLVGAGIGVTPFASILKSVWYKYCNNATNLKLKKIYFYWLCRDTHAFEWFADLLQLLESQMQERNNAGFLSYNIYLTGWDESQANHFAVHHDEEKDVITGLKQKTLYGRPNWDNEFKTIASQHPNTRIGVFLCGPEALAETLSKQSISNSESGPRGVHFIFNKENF
Description: (§3) Purified Drosophila membranes expressing human Nox1, Nox2, or Nox4 were used to monitor ROS production by determining the oxidation of lucigenin, evident as chemiluminescence, in the absence or presence of chemical compound[18].
(§4) Drosophila membranes specifically overexpressing hNox1, hNox2, and hNox4 were subjected into ROS measurement with Diogene.
(§5) The genotypes used were human Nox1 (UAS-hNOX1/UAS-DUOX-RNAi; Da-GAL4/+), Nox2 (UAS-hNOX2/UAS-DUOX-RNAi; Da-GAL4/+) and Nox4 (UAS-hNOX4/UAS-DUOX-RNAi; Da-GAL4/+). Transgenic flies were homogenated with ice-cold PBS containing protease inhibitors and membrane-enriched human Nox1, 2, or 4 were harvested. Membranes containing human Nox1, 2, or 4 served to monitor ROS production by lucigenin chemiluminescence in the absence or presence of chemical compound[18].

[4] = molecular target: T2, human Nox1 (Homo sapiens, UniProt Q9Y5S8); assay: Nox inhibitor screening, Drosophila membranes over-expressing human Nox1, ROS chemiluminescence; format: biochemical; conditions: hNox1 Drosophila membranes
T2 construct: made in house; host or cells: transgenic Drosophila (Duox knockdown, Da-GAL4 driven UAS-hNOX1); membrane-enriched fly homogenate
T2 sequence (Q9Y5S8 1-564): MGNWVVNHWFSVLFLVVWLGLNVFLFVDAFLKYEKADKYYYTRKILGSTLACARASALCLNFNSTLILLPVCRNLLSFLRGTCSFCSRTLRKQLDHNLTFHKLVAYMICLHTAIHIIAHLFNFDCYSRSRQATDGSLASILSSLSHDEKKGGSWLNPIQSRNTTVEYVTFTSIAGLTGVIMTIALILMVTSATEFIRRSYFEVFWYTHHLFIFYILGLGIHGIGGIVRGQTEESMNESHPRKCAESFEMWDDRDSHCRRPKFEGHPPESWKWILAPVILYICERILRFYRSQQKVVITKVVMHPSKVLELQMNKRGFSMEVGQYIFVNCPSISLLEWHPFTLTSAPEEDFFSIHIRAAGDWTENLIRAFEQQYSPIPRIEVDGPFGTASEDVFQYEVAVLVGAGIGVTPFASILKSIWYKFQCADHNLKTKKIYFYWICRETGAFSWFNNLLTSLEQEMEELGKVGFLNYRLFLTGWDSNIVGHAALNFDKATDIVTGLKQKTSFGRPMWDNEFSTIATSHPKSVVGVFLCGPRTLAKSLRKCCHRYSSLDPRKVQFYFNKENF
Description: as §3, §4, §5

[5] = molecular target: T3, human Nox4 (Homo sapiens, UniProt Q9NPH5); assay: Nox inhibitor screening, Drosophila membranes over-expressing human Nox4, ROS chemiluminescence; format: biochemical; conditions: hNox4 Drosophila membranes
T3 construct: made in house; host or cells: transgenic Drosophila (Duox knockdown, Da-GAL4 driven UAS-hNOX4); membrane-enriched fly homogenate
T3 sequence (Q9NPH5 1-578): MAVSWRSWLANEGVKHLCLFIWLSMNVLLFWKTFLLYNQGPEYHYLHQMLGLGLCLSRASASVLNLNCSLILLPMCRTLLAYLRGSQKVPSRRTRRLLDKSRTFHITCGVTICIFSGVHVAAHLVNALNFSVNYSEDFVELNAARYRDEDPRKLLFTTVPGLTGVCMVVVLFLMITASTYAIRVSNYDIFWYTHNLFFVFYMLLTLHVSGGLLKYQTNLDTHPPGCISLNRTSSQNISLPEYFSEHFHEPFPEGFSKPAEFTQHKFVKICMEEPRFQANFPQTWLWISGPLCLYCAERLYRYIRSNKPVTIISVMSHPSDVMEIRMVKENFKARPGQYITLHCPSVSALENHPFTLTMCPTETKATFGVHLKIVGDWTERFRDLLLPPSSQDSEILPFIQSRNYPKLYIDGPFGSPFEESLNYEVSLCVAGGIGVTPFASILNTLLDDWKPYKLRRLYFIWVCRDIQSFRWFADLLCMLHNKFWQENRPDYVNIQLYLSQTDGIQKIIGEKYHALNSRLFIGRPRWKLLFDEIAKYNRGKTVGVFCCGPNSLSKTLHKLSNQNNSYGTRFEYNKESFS
Description: as §3, §4, §5

[6] = molecular target: xanthine oxidase (Bos taurus, UniProt P80457); assay: Xanthine oxidase assay (lucigenin); format: biochemical
Experimental: Xanthine oxidase activity was measured by lucigenin. Reaction mixtures contained 0.1 mU xanthine oxidase, 0.25 mM Xanthine, and 0.4 mM lucigenin with the indicated inhibitor (0–20 μM). Luminescence measured over 30 min at 37 °C with luminometor (DTX800, Beckman coulter).

[7] = test system: bone density; set-up: method as in PMID 16754727; conditions: estrogen replacement; cited from earlier work
[8] = Body weight changes in OVX mice; format: in vivo, ddY mice; conditions: risedronate 2.5 mg/kg; Ewha-18278 2.5, 5, 10 and 20 mg/kg; 28 days
Experimental: (§1) The study was reviewed and approved by the Institutional Animal Care and Use Committee (IACUC) of Center for Laboratory Animal Sciences, Ewha Industry-University Cooperation Foundation, Ewha Womans University. Experimental methods were carried out in accordance with the approved ethic guidelines in Ewha Industry-University Cooperation Foundation, Ewha Womans University. Beginning 4 weeks after OVX, the female ddY mice received 2.5, 5, 10, or 20 mg/kg of #18–278, 2.5 mg/kg of risedronate, or vehicle once daily for 28 days. The Changes in body weight, bone weight, bone mineral density (BMD), failure load (FL), bone calcium (Ca), inorganic phosphorus (P) contents, histology and histomorphology were monitored. Serum osteocalcin and bone specific alkaline phosphatase (bALP) were monitored in mice receiving Ewha-18278.
R esi dronat e 2. 5mg/kg t reated mi ce […]
D ay after administration (d)
Supplementary Figure S7. Body weight changes in OVX mice. We selected eight mice per group showing more increases of body weights as compared with sham-operated mice and regarded as good OVX animals at four weeks after OVX surgery, consequently, significant increases of body weights were detected in all OVX groups as compared with sham control mice throughout 28 days of […]
mice, in the present study. Values are expressed mean ± S.D. of eight mice. Risedronate sodium was administered at 2.5mg/kg levels. […]

[9] = test system: OVX-induced osteoporotic ddY mice; assay: Tibia weights (wet, dry, ash) in OVX mice; format: in vivo; conditions: 2.5 mg/kg oral once daily 28 days
Experimental: (§2) The right sides of femur and tibia were weighed and then dried at 120 °C for 8 hours. The dried bones were carbonized at 800 °C for 6 hours in a furnace (Daihan Scientific, Korea) to detect ash absolute weights, after measurement of BMD and failure load. To reduce the individual body weight differences, the relative weight (%) was calculated using body weight at sacrifice and absolute weight as [Relative bone weights = (Absolute bone weight/Body weight at sacrifice) ×100]. In addition, ashed bones were ground and dissolved in nitric acid. In diluted solution, Ca and P contents were calculated (mg/g bone) using an orthocresolphthalein complex and enzyme methods, respectively. The Ca/P ratio (%) was calculated as (Tibia Ca contents/Tibia P contents) ×100.
Supplementary Table S4. Tibia Weights in OVX Mice Values are expressed mean ± S.D. of eight mice Risedronate sodium was administered at 2.5mg/kg levels a p<0.01 as compared with sham control […]
material OVX = ovariectomy
Groups Tibia absolute weights (g) Tibia relative weights (% of body weight)Wet Dry Ash Wet Dry Ash

[10] = test system: OVX-induced osteoporotic ddY mice; assay: Bone strength (failure load, three-point bending test) in OVX mice; format: in vivo; conditions: oral once daily 28 days; risedronate 2.5 mg/kg
[11] = test system: OVX-induced osteoporotic ddY mice; assay: Femur histopathology-histomorphometry in OVX mice; format: in vivo; conditions: 2.5 mg/kg oral once daily 28 days
Experimental: Risedronate sodium (2.5 mg/kg) served as a reference compound. […] Histopathology and histomorphometrical analyses including trabecular bone volume (BV/TV), trabecular bone number (Tb.N), trabecular bone length (Tb.Le), trabecular bone thickness (Tb.Th), cortical bone thickness (Ct.Th), OC number (N.Oc), bone mineral density (BMD) and bone strength (failure load, FL) were conducted.
as §1
The left side of femur of each mouse was separated and fixed in 10% neutral buffered formalin and decalcified in a solution comprised of 24.4% formic acid and 0.5N sodium hydroxide for 5 days, with spent solution replaced with fresh solution each day. Each sample was embedded in paraffin, sectioned to a thickness of 3–4 μm and exposed to with Hematoxylin & Eosin (H&E) stain. Histomorphometry was conducted as for bone mass and structure with bone resorption in a uniform area of epiphyseal regions of femur (growth plate regions were excluded). Cortical bone thickness was measured in the mid-shaft region of the femur.

[12] = test system: OVX rats; conditions: 2.5 mg/kg/day for 8 weeks; cited from earlier work
[13] = test system: OVX-induced osteoporotic ddY mice; assay: Tibia histopathology-histomorphometry in OVX mice; format: in vivo; conditions: 2.5 mg/kg oral once daily 28 days
[14] = test system: OVX-induced osteoporotic ddY mice; assay: Femur weights (wet, dry, ash) in OVX mice; format: in vivo; conditions: 2.5 mg/kg oral once daily 28 days
Experimental: as §2

glucose oxidase, sequence (P13006 17-605, species assumed): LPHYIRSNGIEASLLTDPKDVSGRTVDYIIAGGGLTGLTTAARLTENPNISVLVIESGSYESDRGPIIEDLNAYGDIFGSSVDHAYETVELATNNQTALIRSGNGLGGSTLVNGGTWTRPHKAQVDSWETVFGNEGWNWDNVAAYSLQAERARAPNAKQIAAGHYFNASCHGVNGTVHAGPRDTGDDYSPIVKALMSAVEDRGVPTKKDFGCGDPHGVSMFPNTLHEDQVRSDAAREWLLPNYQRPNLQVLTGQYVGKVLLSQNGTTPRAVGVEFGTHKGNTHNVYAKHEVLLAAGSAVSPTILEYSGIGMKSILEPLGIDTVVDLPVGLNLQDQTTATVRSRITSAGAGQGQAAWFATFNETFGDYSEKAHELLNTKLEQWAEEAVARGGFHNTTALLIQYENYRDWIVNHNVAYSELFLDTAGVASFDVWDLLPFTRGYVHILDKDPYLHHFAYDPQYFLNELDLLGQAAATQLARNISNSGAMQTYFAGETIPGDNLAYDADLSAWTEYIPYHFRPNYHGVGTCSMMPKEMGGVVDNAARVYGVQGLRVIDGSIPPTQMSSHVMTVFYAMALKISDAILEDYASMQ
xanthine oxidase, sequence (P80457 2-1332): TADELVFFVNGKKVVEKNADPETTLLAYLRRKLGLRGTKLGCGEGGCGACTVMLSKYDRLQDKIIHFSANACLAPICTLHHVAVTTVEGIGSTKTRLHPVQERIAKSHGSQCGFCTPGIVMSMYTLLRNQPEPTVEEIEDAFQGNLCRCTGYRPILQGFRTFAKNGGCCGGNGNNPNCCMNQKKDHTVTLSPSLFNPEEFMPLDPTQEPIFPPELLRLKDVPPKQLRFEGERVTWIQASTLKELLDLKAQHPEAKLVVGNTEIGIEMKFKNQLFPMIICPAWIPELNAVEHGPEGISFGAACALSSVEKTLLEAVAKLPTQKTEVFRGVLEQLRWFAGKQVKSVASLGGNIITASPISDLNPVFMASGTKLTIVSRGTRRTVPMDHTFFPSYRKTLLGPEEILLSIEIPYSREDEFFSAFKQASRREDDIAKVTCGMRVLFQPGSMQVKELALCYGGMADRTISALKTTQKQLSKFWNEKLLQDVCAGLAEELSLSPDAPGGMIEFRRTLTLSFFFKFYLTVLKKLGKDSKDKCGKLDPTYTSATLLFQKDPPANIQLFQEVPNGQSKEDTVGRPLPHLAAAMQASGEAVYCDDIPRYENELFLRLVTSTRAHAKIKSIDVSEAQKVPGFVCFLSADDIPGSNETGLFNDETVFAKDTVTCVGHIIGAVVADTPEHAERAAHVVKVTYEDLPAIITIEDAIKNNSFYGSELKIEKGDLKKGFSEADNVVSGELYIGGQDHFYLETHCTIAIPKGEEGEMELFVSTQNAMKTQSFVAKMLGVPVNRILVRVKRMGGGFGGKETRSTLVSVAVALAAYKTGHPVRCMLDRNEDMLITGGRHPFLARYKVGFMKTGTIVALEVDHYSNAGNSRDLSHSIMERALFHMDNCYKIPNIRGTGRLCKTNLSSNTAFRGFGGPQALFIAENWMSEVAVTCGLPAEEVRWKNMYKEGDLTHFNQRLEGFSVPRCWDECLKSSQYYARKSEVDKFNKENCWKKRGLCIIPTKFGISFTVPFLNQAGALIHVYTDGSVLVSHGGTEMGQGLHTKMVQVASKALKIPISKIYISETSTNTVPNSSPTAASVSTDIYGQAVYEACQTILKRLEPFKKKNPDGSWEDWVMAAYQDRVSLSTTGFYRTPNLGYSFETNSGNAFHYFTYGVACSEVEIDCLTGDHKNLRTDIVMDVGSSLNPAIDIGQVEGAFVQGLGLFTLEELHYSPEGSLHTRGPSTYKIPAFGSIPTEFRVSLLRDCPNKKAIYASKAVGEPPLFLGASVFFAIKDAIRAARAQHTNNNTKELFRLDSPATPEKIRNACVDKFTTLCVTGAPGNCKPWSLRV

## Oc1cc(-c2ccccc2)nn1-c1ccccn1 [Ewha-89403, 3-phenyl-1-(pyridin-2-yl)-1H-5-hydroxypyrazole]
[1]; IV 1 mg/kg
  Clt: 1277 ± 162.1 mL/h
[1]; rat, in vivo, IV 1 mg/kg
  AUC(0-inf): 418 ± 56 ng·h/mL
  AUC(0-t): 343 ± 45 ng·h/mL
  C0: 2520 ± 837 ng/mL
  Vd: 2.64 ± 1.41 L
  half-life: 1.43 ± 0.723 h
[1]; rat, in vivo, IV 1 mg/kg and oral 10 mg/kg, read-out: Absolute Bioavailability (BA)
  bioavailability: 4.3%
[1]; rat, in vivo, oral 10 mg/kg
  AUC(0-inf): 302 ± 133 ng·h/mL
  AUC(0-t): 149 ± 39 ng·h/mL
  Cmax: 194 ± 54 ng/mL
  Tmax: 6.12 ± 2.34 min
  half-life: 3.3 ± 2.08 h
[2]
  inhibitory activity on glucose oxidase: no inhibitory activities
[3]
  Ki: 2.57 µM
[4]
  Ki: 1.45 µM
[5]
  Ki: 3.12 µM
[6]
  inhibitory activity on xanthine oxidase: no inhibitory activities

## O=C(c1ccc(OCCN2CCCCC2)cc1)c1c(-c2ccc(O)cc2)sc2cc(O)ccc12 [Raloxifene]
[7]
  increase of bone density: 3–4%

## O=P(O)(O)C(O)(Cc1cccnc1)P(=O)(O)O [Risedronate, Risedronate sodium, reference compound]
[8]
  body weights as compared with OVX control mice: no meaningful changes
[9]
  Tibia absolute weights, Ash: 0.031 g
  Tibia absolute weights, Dry: 0.050 g
  Tibia absolute weights, Wet: 0.071 g
  Tibia relative weights, Ash: 0.085 % of body weight
  Tibia relative weights, Dry: 0.137 % of body weight
  Tibia relative weights, Wet: 0.196 % of body weight
[10]
  bone strength (FL) of femur and tibia compared to control OVX: did not show any favorable effects
[11]
  BV/TV (trabecular bone volume): 38.08 ± 7.20 ^c %
  Ct.Th (cortical bone thickness): 128.36 ± 15.57 ^a μm
  N.OC/BS (osteoclast cell number, N/epiphyseal): 19.00 ± 2.93 ^eg numbers
  Tb.Le (trabecular bone length): 1.04 ± 0.12 ^ac mm
  Tb.N (trabecular bone number, N/epiphyseal): 24.50 ± 4.00 ^eg numbers
  Tb.Th (trabecular bone thickness): 47.25 ± 4.73 ^ad μm
[12]
  microstructural and biomechanical features of bone: maintains microstructural and biomechanical features of bone
[13]
  BV/TV (trabecular bone volume): 35.71 ± 5.63 ^c %
  Ct.Th (cortical bone thickness): 113.81 ± 14.45 ^a μm
  N.OC/BS (osteoclast cell number, N/epiphyseal): 19.38 ± 3.20 ^ac numbers
  Tb.Le (trabecular bone length): 0.76 ± 0.12 ^ac mm
  Tb.N (trabecular bone number, N/epiphyseal): 19.25 ± 1.67 ^bc numbers
  Tb.Th (trabecular bone thickness): 43.52 ± 8.73 ^ac μm
[14]
  Femur absolute weights, Ash: 0.037 g
  Femur absolute weights, Dry: 0.066 g
  Femur absolute weights, Wet: 0.096 g
  Femur relative weights, Ash: 0.102 % of body weight
  Femur relative weights, Dry: 0.181 % of body weight
  Femur relative weights, Wet: 0.263 % of body weight
